The source of these data is patent publication US9624179B1, “Quinazoline derivative Lu1501 and preparing method and application thereof” (NANJING GENERAL HOSPITAL OF NANJING MILITARY REGION OF PLA, priority 2015, dated 2017).

Read-outs that look alike come from different tables or passages of the source.

Common to all, as to type: cell-based
Assay [1] concerns SK-BR-3 (human breast cancer cell). Nature of the assay: MTT inhibition of proliferation, SK-BR-3. To be noted: SK-BR-3, MTT, 48 h, read-out: Inhibitory Activity on the Proliferation of Tumor Cells (IC50 ± SD) SK-BR-3. As to the method: (§1) The compound 8 of the invention was prepared into required concentrations using a culture medium containing 0.1% DMSO.
(§2) The seven tumor cells including MCF-7 (human breast cancer cell, ATCC:HTB-22), SK-BR-3 (human breast cancer cell, ATCC:HTB-30), A549 (human non-small cell lung cancer cell, ATCC:CRM-CCL-185), HCT116 (human colon cancer cell, ATCC:CCL-247), U-118 MG (human astrocytoma, ATCC:HTB-15), U-87 MG (human astrocytoma, ATCC:HTB-14), MDA-MB-468 (human breast cancer cell, ATCC:HTB-132) were all purchased from American Type Culture Collection (ATCC). […]
(§3) MCF-7, SK-BR-3, A549, HCT 116, U-118 MG U-87 MG and MDA-MB-468 cells in logarithmic phase with excellent growth conditions were grafted into a 96-well plate according to a density of 1×10^4 cells/mL, wherein each well was grafted 100 μl. […] A supernate was absorbed out carefully, 150 μl DMSO was added into each hole to dissolve purple residue (formazan), flatly oscillated for 10 min to completely dissolve deposits, then O.D. value (absorbancy) was measured on a microplate reader, wherein the wavelength was 570 nm. […]
(§4) The test was repeated for thrice. A diagram was made by plotting the inhibition rate against the concentration of the compound, and the IC50 (half effective inhibitive concentration) value of the compound 8 of the invention was calculated. […]

Assay [2] relates to U-118 MG (human astrocytoma). Put plainly: MTT inhibition of proliferation, U-118 MG. To be noted: 48 h, read-out: Inhibitory Activity on the Proliferation of Tumor Cells (IC50 ± SD) U-118 MG. How it is done: as §1, §2, §3, §4
In assay [3] the test system is U-87 MG (human astrocytoma). Put plainly: MTT inhibition of proliferation, U-87 MG. To be noted: 48 h, read-out: Inhibitory Activity on the Proliferation of Tumor Cells (IC50 ± SD) U-87 MG. As to the method:
as §1, §2, §3, §4

In assay [4] the test system is MDA-MB-468 (human breast cancer cell). Nature of the assay: MTT inhibition of proliferation, MDA-MB-468. To be noted: MDA-MB-468, MTT, 48 h, read-out: Inhibitory Activity on the Proliferation of Tumor Cells (IC50 ± SD) MDA-MB-468. As to the method:
as §1, §2, §3, §4

The test system of assay [5] is MCF-7 (human breast cancer cell). Nature of the assay: MTT inhibition of proliferation, MCF-7. To be noted: MCF7, MCF-7, MTT, 48 h, read-out: Inhibitory Activity on the Proliferation of Tumor Cells (IC50 ± SD) MCF-7. As to the method: as §1, §2, §3, §4
Assay [6] deals with A549 (human non-small cell lung cancer cell). Put plainly: MTT inhibition of proliferation, A549. To be noted: 48 h, read-out: Inhibitory Activity on the Proliferation of Tumor Cells (IC50 ± SD) A549. As to the method: as §1, §2, §3, §4
The test system of assay [7] is HCT116 (human colon cancer cell). Nature of the assay: MTT inhibition of proliferation, HCT 116. To be noted: HCT 116, MTT, 48 h, read-out: Inhibitory Activity on the Proliferation of Tumor Cells (IC50 ± SD) HCT 116. How it is done: as §1, §2, §3, §4

For `COc1cccc2c1C(=O)c1c(O)c3c(c(O)c1C2=O)C[C@@](O)(C(=O)CO)C[C@@H]3O[C@H]1C[C@H](N)[C@H](O)[C@H](C)O1` [ADR, Adriamycin amycin, reference compound], the IC50 in assay [1] was 4.65 ± 0.02 µM; in assay [2] it was 13.5 ± 1.75 µM; in assay [3], 82.5 ± 7.15 µM; in assay [4], 2.45 ± 0.31 µM.

With `COc1cc2ncnc(Nc3ccc(NCc4ccc(F)cc4)cc3)c2cc1OCCN1CCCC1` [Compound 8, N-[(4-fluorophenyl)methyl]-4-N-{7-methoxy-6-[(2-pyrrolidin-1-yl)hydroxyethyl]quinazolin-4-yl}phen-1,4-diamine], the IC50 in assay [5] is 16.1 ± 3.47 µM; in assay [1] (Homo sapiens) it was 10.2 ± 0.86 µM; in assay [6], 5.66 ± 1.01 µM; in assay [7], 2.9 ± 1.02 µM; in assay [2] (Homo sapiens) it was 24.5 ± 2.68 µM; in assay [3] (Homo sapiens), 5.45 ± 0.61 µM. Further, the IC50 in assay [4] (Homo sapiens) stood at 19.4 ± 1.33 µM.
